# Results: publication PMC7502707, “Characterization and validation of a preventative therapy for hypertrophic cardiomyopathy in a murine model of the disease” (Proceedings of the National Academy of Sciences of the …, 2020)
# Experiments:
# Assay type in all cases: in vivo, mouse
# [1] = tested on: wt and cTnI-G203S mice; assay: Toxicity parameters: terminal serum urea, creatinine, ALT, AST and body weight
# Protocol: Mice were treated with 10 μM AID(S)-TAT or AID-TAT 3×/wk/5 wk (equaling 15 doses). BW was recorded prior to administration of each peptide dose, and reported as a percentage of day 1 BW. A 5 to 10% reduction in BW directed increased monitoring as recommended by The Animal Ethics Committee of The University of Western Australia in accordance with the 2008 Guidelines to Promote the Wellbeing of Animals Used for Scientific Purposes ([65]). Following completion of treatment regimen, mice were anesthetized and terminal blood collected. Serum was extracted and used to measure kidney and liver toxicity as previously described ([66]). Detailed methods are provided in SI Appendix.
# Echocardiographic measurement of left ventricular function were performed on mice under light methoxyflurane anesthesia using an i13L probe on a Vivid 7 Dimension ultrasound system (GE Healthcare, Little Chalfont, United Kingdom) as previously described (4, 7). Echocardiographic measurements were taken on M-mode in triplicate from separate mice at a sweep speed of 200 mm/s. Each n represents the average of quantitative measurements from wt or cTnI-G203S mice for each treatment group. Measurements of left ventricular end diastolic diameter (LVEDD), left ventricular end systolic diameter (LVESD), fractional shortening (FS), left ventricular posterior wall in diastole (LVDPW), left ventricular posterior wall in systole (LVSPW), interventricular septum in diastole (IVSD), interventricular septum in systole (IVSS) and end diastolic diameter (EDD) were made. FS was calculated by the formula [(LVEDD-LVESD)/EDD] x 100.
# (§1) Cell size was determined as previously described (16). […]
# (§2) To measure kidney toxicity, urea and creatinine concentration was assessed using QuantiChrom Urea and Creatinine assay kits respectively (BioAssay Systems, Hayward CA). To measure liver toxicity, alanine transaminase (ALT) and aspartate transaminase (AST) concentration was measured using Alanine Transaminase and Aspartate Transaminase assay kits respectively (BioAssay Systems, Hayward CA). […]
# [2] = tested on: myocytes isolated from wt and cTnI-G203S mice; assay: Confocal imaging of F-actin (phalloidin) in myocytes from treated mice; settings: myocytes from cTnI-G203S mice treated 10 μM 3×/wk/5 wk, Pre HCM Rx
# Protocol: Following completion of treatment regimens, myocytes were isolated and prepared for confocal imaging based on previously described methods ([29]). Detailed methods are provided in SI Appendix.
# Echocardiographic measurement of left ventricular function were performed on mice under light methoxyflurane anesthesia using an i13L probe on a Vivid 7 Dimension ultrasound system (GE Healthcare, Little Chalfont, United Kingdom) as previously described (4, 7). Echocardiographic measurements were taken on M-mode in triplicate from separate mice at a sweep speed of 200 mm/s. Each n represents the average of quantitative measurements from wt or cTnI-G203S mice for each treatment group. […] FS was calculated by the formula [(LVEDD-LVESD)/EDD] x 100.
# as §1, §2
# [3] = tested on: myocytes isolated from wt and cTnI-G203S mice; assay: Flavoprotein oxidation in myocytes isolated from treated mice; settings: myocytes from precardiomyopathic cTnI-G203S mice treated 10 μM i.p. 3×/wk/5 wk from 20 wk
# Protocol: Male mice expressing the human cTnI gene encoding the human disease-causing mutation cTnI-G203S were used for all studies. […] Male mice expressing the normal human cTnI gene were used as controls (wt). Ten-week-old mice were used for in vitro studies. For in vivo studies, 20- or 30-wk-old cTnI-G203S mice were treated with 10 μM AID-TAT or AID[S]-TAT via intraperitoneal injection, 3×/wk/5 wk. In vivo dose of AID-TAT or AID[S]-TAT (10 μM) was calculated based on blood volume, equating to ∼2 mg/kg total BW. Male animal models were used to eliminate potential differences in responses due to sex. Experiments were performed in a total of 21 wt (AID[S]-TAT), 6 wt (AID-TAT), 15 cTnI-G203S (AID[S]-TAT), and 26 cTnI-G203S (AID-TAT) mice. All animals were randomly assigned to treatment groups.
# Fluorescence was measured on a Hamamatsu Orca ER digital camera attached to an inverted Nikon TE2000-U microscope. […]
# Additionally, individual 580 nm and 535 nm wavelength signals were assessed in each experiment to determine whether the fluorescent indicator was accurately measuring m. […] Ratiometric JC-1 or flavoprotein fluorescent signals were quantified by manually tracing myocytes and subtracting an equivalent background region […]
# [4] = terminal serum, 10 μM 3×/wk/5 wk
sequence,measurement,setting,value
QQLEEDLKGYLDWITQAE [AID-TAT],body weight over the course of treatment,"[1]; 15 doses, % of day 1 BW",no significant reduction
same,kidney toxicity: serum urea and creatinine,[1]; [4],No significant alterations
same,liver toxicity: serum ALT and AST,[1]; [4],No significant alterations
same,F-actin organization,[2],F-actin organization comparable to wt myocytes
same,increase in flavoprotein oxidation following BayK(−),[3],reduced this response to a level comparable to that observed in wt myocytes
